Data on nine compounds can be found in patent US7432388B2 (Allergan, Inc., priority 2003, dated 2008).

Bounds are passed on as bounds.

For orientation: EC50 means the concentration giving half of the maximal effect. What is called IC50 is the point on the concentration scale where inhibition reaches its midpoint.

One assay addresses T1, RARα (Homo sapiens, UniProt P10276).
T1 sequence (P10276 183-417 limits assumed): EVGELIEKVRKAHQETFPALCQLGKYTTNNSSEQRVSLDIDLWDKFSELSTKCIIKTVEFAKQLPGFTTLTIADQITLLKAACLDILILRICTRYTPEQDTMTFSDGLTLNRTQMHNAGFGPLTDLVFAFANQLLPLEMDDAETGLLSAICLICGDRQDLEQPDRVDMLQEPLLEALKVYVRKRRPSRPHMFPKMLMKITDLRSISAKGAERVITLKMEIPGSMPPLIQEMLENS
Put plainly: chimeric receptor transactivation assay (agonist-like activity). The format is cell-based. Set-up: RAR EC50 (nM) (% Efficiency) α. As to conditions: read-out: RAR EC50 (nM) (% Efficiency) α. Here is the method: (§1) Specifically, one assay in which the compounds were tested is a chimeric receptor transactivation assay which tests for agonist-like activity in the RARα, RARγ and RARγ receptor subtypes, and which is based on work published by Feigner P. L. and Holm M (1989) Focus, 112 is described in detail in U.S. Pat. No. 5,455,265. The specification of U.S. Pat. No. 5,455,265 is hereby expressly incorporated by reference.
(§2) A holoreceptor transactivation assay and a ligand binding assay which measure the antagonist/agonist like activity of the compounds of the invention, or their ability to bind to the several retinoid receptor subtypes, respectively, are described in published PCT Application No. WO WO93/11755 (particularly on pages 30-33 and 37-41) published on Jun. 24, 1993, the specification of which is also incorporated herein by reference. A detailed experimental procedure for holoreceptor transactivations has been described by Heyman et al. Cell 68, 397-406, (1992); Allegretto et al. J. Biol. Chem. 268, 26625-26633, and Mangelsdorf et al. The Retinoids: Biology, Chemistry and Medicine, pp 319-349, Raven Press Ltd., New York, which are expressly incorporated herein by reference. The results obtained in this assay are expressed in EC50 numbers, as they are also in the chimeric receptor transactivation assay. The other functional assay running in the presence of 1 nM all-trans retinoic acid, namely PGA-RAR antagonist assay (utilizing glucocorticoid-retinoid chimeric receptors), is a modified chimeric receptor transactivation assay which tests the compounds for their antagonist-like activity in the RARα, RARγ and RARγ receptor subtypes. The results from this assay are normally expressed in IC50 numbers (See Teng et al. J. Med. Chem. 40, 2445-2452, (1997) incorporated herein by reference.)

The target of a further assay is T2, RARβ (Homo sapiens, UniProt P10826).
T2 sequence (P10826 183-417 limits assumed): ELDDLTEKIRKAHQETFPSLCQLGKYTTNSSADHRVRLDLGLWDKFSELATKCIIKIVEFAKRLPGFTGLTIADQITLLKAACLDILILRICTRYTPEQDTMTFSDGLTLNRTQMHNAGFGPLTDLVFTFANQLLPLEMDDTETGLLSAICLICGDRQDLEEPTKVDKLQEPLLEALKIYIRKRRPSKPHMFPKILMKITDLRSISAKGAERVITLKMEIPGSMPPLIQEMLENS
Described as above. It is filed as cell-based. Set-up: RAR EC50 (nM) (% Efficiency) β. As to conditions: read-out: RAR EC50 (nM) (% Efficiency) β. Here is the method: as §1, §2

The target of assay [1] is T3, RARγ (Homo sapiens, UniProt P13631).
T3 sequence (P13631 185-419 limits assumed): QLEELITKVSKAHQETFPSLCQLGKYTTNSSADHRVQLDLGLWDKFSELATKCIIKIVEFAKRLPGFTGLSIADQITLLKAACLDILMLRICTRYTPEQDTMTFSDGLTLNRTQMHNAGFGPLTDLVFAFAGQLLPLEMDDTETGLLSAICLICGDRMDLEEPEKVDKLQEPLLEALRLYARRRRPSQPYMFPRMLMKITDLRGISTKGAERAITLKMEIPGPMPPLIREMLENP
Nature of the assay: PGA-RAR antagonist assay (glucocorticoid-retinoid chimeric receptors). It is filed as cell-based. Set-up: RAR IC50 (nM) γ; other: in the presence of 1 nM all-trans retinoic acid; fused on or other part: Glucocorticoid receptor DNA-recognition part in place of RAR's own. As to conditions: for IC50: in the presence of 1 nM all-trans retinoic acid, read-out: RAR IC50 (nM) γ; for RAR γ (% Inhibition): percentage of the maximum inhibition of the activity induced by 1 nM all-trans retinoic acid. Here is the method: (§3) The results obtained in this assay are expressed in EC50 numbers, as they are also in the chimeric receptor transactivation assay. The other functional assay running in the presence of 1 nM all-trans retinoic acid, namely PGA-RAR antagonist assay (utilizing glucocorticoid-retinoid chimeric receptors), is a modified chimeric receptor transactivation assay which tests the compounds for their antagonist-like activity in the RARα, RARγ and RARγ receptor subtypes.

Assay [2] deals with T4, RARγ (Homo sapiens, UniProt P13631).
T4 sequence (P13631 1-454): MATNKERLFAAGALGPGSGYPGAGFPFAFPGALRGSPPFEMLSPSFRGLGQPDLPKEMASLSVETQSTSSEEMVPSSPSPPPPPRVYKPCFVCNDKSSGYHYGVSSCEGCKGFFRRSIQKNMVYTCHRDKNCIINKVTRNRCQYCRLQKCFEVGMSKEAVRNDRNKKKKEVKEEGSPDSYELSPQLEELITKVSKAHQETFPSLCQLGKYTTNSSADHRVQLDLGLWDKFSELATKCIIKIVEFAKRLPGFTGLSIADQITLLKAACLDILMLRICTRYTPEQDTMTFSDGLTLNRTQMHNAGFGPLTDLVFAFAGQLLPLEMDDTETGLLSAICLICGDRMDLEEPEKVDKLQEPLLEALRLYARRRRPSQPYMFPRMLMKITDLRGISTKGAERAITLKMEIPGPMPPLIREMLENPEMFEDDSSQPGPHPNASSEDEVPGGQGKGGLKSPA
Nature of the assay: ligand binding assay. As to conditions: expressed in Ki numbers, read-out: RAR Binding γ. Here is the method:
as §3
The results of the ligand binding assay are expressed in Ki numbers.

On to `Cc1ccc(C2=CCC(C)(C)c3cc(C(/C=C/c4ccc(C(=O)O)cc4F)=N/O)ccc32)cc1` [Compound 9a, E-4-[3-(8,8-Dimethyl-5-p-tolyl-7,8-dihydro-naphthalen-2-yl)-3-hydroxyimino-propenyl]-3-fluoro-benzoic acid], for which the EC50 at RARα and on RARβ was > 10000 nM in each case. Moreover, on RARγ [1], the IC50 was determined as 5 nM. Further, the “RAR γ (% Inhibition)” value at RARγ [1] amounted to 90%. The Ki at RARγ [2] was determined as 11 nM.
For `Cc1ccc(C2=CCC(C)(C)c3cc(C(/C=C/c4ccc(C(=O)O)cc4)=N\O)ccc32)cc1` [Compound 7b, Z-4-[3-(8,8-dimethyl-5-p-tolyl-7,8-dihydro-naphthalen-2-yl)-3-hydroxyimino-propenyl]-benzoic acid], the EC50 on RARα was > 10000 nM. Moreover, on RARβ, the 50% effective concentration (EC50) was > 10000 nM. On RARγ [1], the IC50 was found to be 25 nM and the “RAR γ (% Inhibition)” value was determined as 88%. The Ki on RARγ [2] amounted to 29 nM.
Consider `Cc1ccc(C2=CC(C)(C)c3cc(C(/C=C/c4ccc(C(=O)O)cc4)=N\O)ccc32)cc1` [Compound 16b], for which the EC50 on RARα is > 10000 nM. Besides, at RARβ, the EC50 is > 10000 nM. At RARγ [1], the concentration for half-maximal inhibition (IC50) was found to be 67 nM and the “RAR γ (% Inhibition)” value worked out at 54%. Besides, on RARγ [2], the Ki came to 145 nM.
For the compound `Cc1ccc(C2=CC(C)(C)c3cc(C(/C=C/c4ccc(C(=O)O)cc4)=N/O)ccc32)cc1` [Compound 16a], the EC50 on RARα is > 10000 nM. Besides, at RARβ, the concentration giving a half-maximal response (EC50) was > 10000 nM. For the same compound, on RARγ [1], the half-maximal inhibitory concentration (IC50) is 27 nM and the “RAR γ (% Inhibition)” value was found to be 78%. Further, the Ki at RARγ [2] worked out at 25 nM.
`Cc1ccc(C2=CCC(C)(C)c3cc(C(/C=C/c4ccc(C(=O)O)cc4F)=N\O)ccc32)cc1` [Compound 9b, Z-4-[3-(8,8-Dimethyl-5-p-tolyl-7,8-dihydro-naphthalen-2-yl)-3-hydroxyimino-propenyl]-3-fluoro-benzoic acid]: the 50% effective concentration (EC50) on RARα and at RARβ was > 10000 nM in each case. Moreover, the 50% inhibitory concentration (IC50) on RARγ [1] was 13 nM. Besides, the “RAR γ (% Inhibition)” value at RARγ [1] turned out to be 78%. At RARγ [2], the Ki is 133 nM.
Take `Cc1ccc(C2=CCC(C)(C)c3cc(C(/C=C/c4ccc(C(=O)O)cc4)=N/O)ccc32)cc1` [Compound 7a, E-4-[3-(8,8-Dimethyl-5-p-tolyl-7,8-dihydro-naphthalen-2-yl)-3-hydroxyimino-propenyl]-benzoic acid]: the EC50 at RARα and on RARβ was > 10000 nM throughout. The half-maximal inhibitory concentration (IC50) at RARγ [1] came out at 0.6 nM. For the same compound, the “RAR γ (% Inhibition)” value at RARγ [1] was determined as 95%. The Ki on RARγ [2] is 3 nM.
In the case of `Cc1ccc(C2=CC(C)(C)c3cc(C(/C=C/c4ccc(C(=O)O)cc4F)=N/O)ccc32)cc1` [Compound 18a, E-4-[3-(3,3-Dimethyl-1-p-tolyl-3H-inden-5-yl)-3-hydroxyimino-propenyl]-3-fluoro-benzoic acid], the EC50 at RARα was > 10000 nM. At RARβ, the EC50 is > 10000 nM. In addition, at RARγ [1], the half-maximal inhibitory concentration (IC50) was found to be 52 nM and the “RAR γ (% Inhibition)” value is 70%. Further, the Ki on RARγ [2] is 70 nM.
`Cc1ccc(C2=CCC(C)(C)c3cc(C(/C=C/c4ccc(C(=O)O)cc4)=NO)ccc32)cc1` (racemic) [Compound 7c, 4-[3-(8,8-Dimethyl-5-p-tolyl-7,8-dihydro-naphthalen-2-yl)-3-hydroxyimino-propenyl]-benzoic acid]: the concentration giving a half-maximal response (EC50) on RARα was > 10000 nM. Moreover, the half-maximal effective concentration (EC50) on RARβ was > 10000 nM. In addition, on RARγ [1], the half-inhibitory concentration (IC50) was 2 nM and the “RAR γ (% Inhibition)” value stood at 108%. Moreover, the Ki on RARγ [2] came out at 6 nM.
As for `Cc1ccc(C2=CC(C)(C)c3cc(C(/C=C/c4ccc(C(=O)O)cc4F)=N\O)ccc32)cc1` [Compound 18b, Z-4-[3-(3,3-Dimethyl-1-p-tolyl-3H-inden-5-yl)-3-hydroxyimino-propenyl]-3-fluoro-benzoic acid], the concentration giving a half-maximal response (EC50) on RARα was > 10000 nM. On RARβ, the EC50 is > 10000 nM. At RARγ [1], the IC50 amounted to 226 nM and the “RAR γ (% Inhibition)” value is given as 58%. Further, the Ki at RARγ [2] is 717 nM.
